Experimental data published in patent US20180072997A1, “INHIBITORS OF HUMAN IMMUNODEFICIENCY VIRUS REPLICATION” (ViiV HEATHCARE UK (NO.5) LIMITED, priority 2015, published 2018).

tested on: recombinant NL4-3 virus (Renilla luciferase in nef) in MT-2 cells; assay: whole plant or invertebrate; format: cell-based, HIV; conditions: Renilla, NL43, MT-2 cells infected for 4-5 days with recombinant NL4-3 Renilla luciferase virus; luciferase activity
Procedure: HIV cell culture assay—MT-2 cells, 293T cells and the proviral DNA clone of NL4-3 virus were obtained from the NIH AIDS Research and Reference Reagent Program. MT-2 cells were propagated in RPMI 1640 media supplemented with 10% heat inactivated fetal bovine serum (FBS), 100 μg/ml penicillin G and up to 100 units/mL streptomycin. The 293T cells were propagated in DMEM media supplemented with 10% heat inactivated FBS, 100 μg/mL penicillin G and 100 μg/mL streptomycin. A recombinant NL4-3 proviral clone, in which a section of the nef gene was replaced with the Renilla luciferase gene, was used to make the reference virus used in these studies. The recombinant virus was prepared through transfection of the recombinant NL4-3 proviral clone into 293T cells using Transit-293 Transfection Reagent from Mirus Bio LLC (Madison, Wis.). Supernatent was harvested after 2-3 days and the amount of virus present was titered in MT-2 cells using luciferase enzyme activity as a marker by measuring luciferase enzyme activity. Luciferase was quantitated using the EnduRen Live Cell Substrate from Promega (Madison, Wis.). Antiviral activities of compounds toward the recombinant virus were quantified by measuring luciferase activity in MT-2 cells infected for 4-5 days with the recombinant virus in the presence of serial dilutions of the compound.
(Johnson V A, Byington R T. Infectivity Assay. In Techniques in HIV Research. ed. Aldovini A, Walker BD. 71-76. New York: Stockton Press.1990).

Row | Compound | EC50
1 | COc1ccc(-n2ccnc2[C@H](Cc2ccccc2)NC(=O)c2cccc(C(=O)N[C@@H](Cc3ccccc3)c3nccn3-c3ccc(OC)cc3)c2)cc1 [Example 161] | 2800 nM
2 | COc1ccc(N(C)C(=O)[C@H](Cc2ccccc2)NC(=O)Cn2c(=O)c3ccccc3c(=O)n2CC(=O)N[C@@H](Cc2ccccc2)C(=O)N(C)c2ccc(OC)cc2)cc1 [Example 92] | 290 nM
3 | C=CCN(C(=O)[C@H](Cc1cc(F)cc(F)c1)NC(=O)NS(=O)(=O)N[C@@H](Cc1cc(F)cc(F)c1)C(=O)N(CC=C)c1ccc2nccnc2c1)c1ccc2nccnc2c1 [Example 213] | 8210 nM
4 | Cc1ccc(N(C)C(=O)[C@H](Cc2cc(F)cc(F)c2)NC(=O)NS(=O)(=O)N[C@@H](Cc2cc(F)cc(F)c2)C(=O)N(C)c2ccc(C)cn2)nc1 [Example 182] | 400 nM
5 | COc1ccc(N(C)C(=O)[C@H](Cc2cc(F)cc(F)c2)NC(=O)c2cc(Cl)c(Cl)cc2C(=O)N[C@@H](Cc2cc(F)cc(F)c2)C(=O)N(C)c2ccc(OC)cc2)cc1 [Example 255] | 80 nM
6 | COc1ccc(N(C)C(=O)[C@H](Cc2ccccc2)NC(=O)c2cccc(S(=O)(=O)N[C@@H](Cc3ccccc3)C(=O)N(C)c3ccc(OC)cc3)c2)cc1 [Example 108] | 720 nM
7 | CN(C(=O)[C@H](Cc1cc(F)cc(F)c1)NC(=O)c1cccc(C(=O)N[C@@H](Cc2cc(F)cc(F)c2)C(=O)N(C)c2ccc3scnc3c2)c1)c1ccc2scnc2c1 [Example 51] | 10 nM
8 | CN(C(=O)[C@H](Cc1cc(F)cc(F)c1)NC(=O)c1ccc(F)c(C(=O)N[C@@H](Cc2cc(F)cc(F)c2)C(=O)N(C)c2ccc3scnc3c2)c1)c1ccc2scnc2c1 [Example 126] | 10 nM
9 | COc1ccc(N(C)C(=O)[C@H](Cc2ccccc2)NC(=O)c2ccc(F)c(C(=O)N[C@@H](Cc3ccccc3)C(=O)N(C)c3ccc(OC)cc3)c2)cc1 [Example 106] | 50 nM
10 | C=CCN(C(=O)[C@H](Cc1cc(F)cc(F)c1)NS(=O)(=O)c1ccccc1S(=O)(=O)N[C@@H](Cc1cc(F)cc(F)c1)C(=O)N(CC=C)c1ccc(OC)cc1)c1ccc(OC)cc1 [Example 193] | 1740 nM
11 | COc1ccc(N(C)C(=O)[C@H](Cc2ccccc2)NC(=O)c2ccc(C(=O)N[C@@H](Cc3ccccc3)C(=O)N(C)c3ccc(OC)cc3)s2)cc1 [Example 58] | 610 nM
12 | COc1ccc(N(C)C(=O)[C@H](Cc2cc(F)cc(F)c2)NC(=O)COc2nc3ccccc3n(CC(=O)N[C@@H](Cc3cc(F)cc(F)c3)C(=O)N(C)c3ccc(OC)cc3)c2=O)cc1 [Example 96] | 120 nM
13 | COc1ccc(N(C)C(=O)[C@H](Cc2ccccc2)NC(=O)c2cc(C(=O)N[C@@H](Cc3ccccc3)C(=O)N(C)c3ccc(OC)cc3)on2)cc1 [Example 116] | 710 nM
14 | COc1ccc(N(C)C(=O)[C@H](Cc2ccccc2)NC(=O)c2ccccc2-c2ccccc2C(=O)N[C@@H](Cc2ccccc2)C(=O)N(C)c2ccc(OC)cc2)cc1 [Example 79] | 1400 nM
15 | COc1ccc(N(C)C(=O)[C@H](Cc2ccccc2)NC(=O)c2cc(Br)cc(C(=O)N[C@@H](Cc3ccccc3)C(=O)N(C)c3ccc(OC)cc3)c2)cc1 [Example 110] | 210 nM
16 | COc1ccc(N(C)C(=O)[C@H](Cc2ccccc2)NC(=O)Cn2c(=O)n(CC(=O)N[C@@H](Cc3ccccc3)C(=O)N(C)c3ccc(OC)cc3)c3c(Cl)cccc32)cc1 [Example 73] | 70 nM
17 | CN(C(=O)[C@H](Cc1cc(F)cc(F)c1)NC(=O)CN1c2ccccc2N(CC(=O)N[C@@H](Cc2cc(F)cc(F)c2)C(=O)N(C)c2ccc3sncc3c2)S1(=O)=O)c1ccc2sncc2c1 [Example 160] | 20 nM

tested on: not listed separately; assay: Compound cytotoxicity, XTT-based colorimetric assay; format: cell-based; conditions: human, uninfected MT2 cells, day 4, XTT
Procedure: Compound cytotoxicity and the corresponding CC50 values were determined using the same protocol as described in the antiviral assay except that uninfected cells were used. Cytotoxicity was assessed on day 4 in uninfected MT2 cells by using a XTT (2,3-bis[2-Methoxy-4-nitro-5-sulfophenyl]-2H-tetrazolium-5-carboxyanilide inner salt)-based colorimetric assay (Sigma-Aldrich, St Louis, Mo.).

Row | Compound | CC50 at 4 days
18 | COc1ccc(-n2ccnc2[C@H](Cc2ccccc2)NC(=O)c2cccc(C(=O)N[C@@H](Cc3ccccc3)c3nccn3-c3ccc(OC)cc3)c2)cc1 [Example 161] | 73900 nM
19 | COc1ccc(N(C)C(=O)[C@H](Cc2ccccc2)NC(=O)Cn2c(=O)c3ccccc3c(=O)n2CC(=O)N[C@@H](Cc2ccccc2)C(=O)N(C)c2ccc(OC)cc2)cc1 [Example 92] | 10100 nM
20 | C=CCN(C(=O)[C@H](Cc1cc(F)cc(F)c1)NC(=O)NS(=O)(=O)N[C@@H](Cc1cc(F)cc(F)c1)C(=O)N(CC=C)c1ccc2nccnc2c1)c1ccc2nccnc2c1 [Example 213] | ≥ 100000 nM
21 | Cc1ccc(N(C)C(=O)[C@H](Cc2cc(F)cc(F)c2)NC(=O)NS(=O)(=O)N[C@@H](Cc2cc(F)cc(F)c2)C(=O)N(C)c2ccc(C)cn2)nc1 [Example 182] | 97900 nM
22 | COc1ccc(N(C)C(=O)[C@H](Cc2cc(F)cc(F)c2)NC(=O)c2cc(Cl)c(Cl)cc2C(=O)N[C@@H](Cc2cc(F)cc(F)c2)C(=O)N(C)c2ccc(OC)cc2)cc1 [Example 255] | 10000 nM
23 | COc1ccc(N(C)C(=O)[C@H](Cc2ccccc2)NC(=O)c2cccc(S(=O)(=O)N[C@@H](Cc3ccccc3)C(=O)N(C)c3ccc(OC)cc3)c2)cc1 [Example 108] | ≥ 100000 nM
24 | CN(C(=O)[C@H](Cc1cc(F)cc(F)c1)NC(=O)c1cccc(C(=O)N[C@@H](Cc2cc(F)cc(F)c2)C(=O)N(C)c2ccc3scnc3c2)c1)c1ccc2scnc2c1 [Example 51] | ≥ 100000 nM
25 | CN(C(=O)[C@H](Cc1cc(F)cc(F)c1)NC(=O)c1ccc(F)c(C(=O)N[C@@H](Cc2cc(F)cc(F)c2)C(=O)N(C)c2ccc3scnc3c2)c1)c1ccc2scnc2c1 [Example 126] | ≥ 100000 nM
26 | COc1ccc(N(C)C(=O)[C@H](Cc2ccccc2)NC(=O)c2ccc(F)c(C(=O)N[C@@H](Cc3ccccc3)C(=O)N(C)c3ccc(OC)cc3)c2)cc1 [Example 106] | 6300 nM
27 | C=CCN(C(=O)[C@H](Cc1cc(F)cc(F)c1)NS(=O)(=O)c1ccccc1S(=O)(=O)N[C@@H](Cc1cc(F)cc(F)c1)C(=O)N(CC=C)c1ccc(OC)cc1)c1ccc(OC)cc1 [Example 193] | ≥ 33300 nM
28 | COc1ccc(N(C)C(=O)[C@H](Cc2ccccc2)NC(=O)c2ccc(C(=O)N[C@@H](Cc3ccccc3)C(=O)N(C)c3ccc(OC)cc3)s2)cc1 [Example 58] | 3300 nM
29 | COc1ccc(N(C)C(=O)[C@H](Cc2cc(F)cc(F)c2)NC(=O)COc2nc3ccccc3n(CC(=O)N[C@@H](Cc3cc(F)cc(F)c3)C(=O)N(C)c3ccc(OC)cc3)c2=O)cc1 [Example 96] | ≥ 50000 nM
30 | COc1ccc(N(C)C(=O)[C@H](Cc2ccccc2)NC(=O)c2cc(C(=O)N[C@@H](Cc3ccccc3)C(=O)N(C)c3ccc(OC)cc3)on2)cc1 [Example 116] | 1500 nM
31 | COc1ccc(N(C)C(=O)[C@H](Cc2ccccc2)NC(=O)c2ccccc2-c2ccccc2C(=O)N[C@@H](Cc2ccccc2)C(=O)N(C)c2ccc(OC)cc2)cc1 [Example 79] | ≥ 100000 nM
32 | COc1ccc(N(C)C(=O)[C@H](Cc2ccccc2)NC(=O)c2cc(Br)cc(C(=O)N[C@@H](Cc3ccccc3)C(=O)N(C)c3ccc(OC)cc3)c2)cc1 [Example 110] | ≥ 100000 nM
33 | COc1ccc(N(C)C(=O)[C@H](Cc2ccccc2)NC(=O)Cn2c(=O)n(CC(=O)N[C@@H](Cc3ccccc3)C(=O)N(C)c3ccc(OC)cc3)c3c(Cl)cccc32)cc1 [Example 73] | 39900 nM
34 | CN(C(=O)[C@H](Cc1cc(F)cc(F)c1)NC(=O)CN1c2ccccc2N(CC(=O)N[C@@H](Cc2cc(F)cc(F)c2)C(=O)N(C)c2ccc3sncc3c2)S1(=O)=O)c1ccc2sncc2c1 [Example 160] | ≥ 100000 nM
